Laboratory results: patent US12435061B2 (priority 2020, dated 2025)

Legend:
[1] = molecular target: T1, hTRPV3 (Homo sapiens (Human), UniProt Q8NET8); test: FLIPR Assay (calcium flux, HEK293 cells stably expressing TRPV3); assay type: cell-based
Description: In Tables 3 and 4, Phase 1 refers to Phase 1 current for human (h) TRPV3 or rat (r) TRPV3, and Phase 2 refers to Phase 2 current for human (h) TRPV3 or rat (r) TRPV3. The hTRPV3 and rTRPV3 assays were performed as described herein. hERG refers to the inhibition the human ERG (hERG) channel. NaV1.5, refers to the pore forming aL-subunit of the voltage-dependent cardiac Na(+) channel and is an integral membrane protein involved in the initiation and conduction of action potentials. hTRPV3 HAMA IC50 refers to the IC50 of TRPV3 cells stably expressed in TRex-293 cells. Solubility Ringer refers to the compounds' solubility in Ringer's solution. LM T1/2 refers to liver microsome half-lives in either rat or human liver microsomes. FLIPR IC50 refers to the IC50 of the test compounds against recombinant hTRPV3 cells.
The cells were treated with IBSS and 20 mM HEPES adjusted to pH 7.4 in the presence of the fluorescent calcium indicator e.g. Fluo-4AM (5 uM) and the plates were incubated at 37° C. and […] for approximately 1 hour and cooled to room temperature. […] Relative Fluorescence Units (RFU) were measured for each response for signal maximum minus minimum during approximately 90 seconds after addition.

[2] = molecular target: T1, hTRPV3; test: Whole-cell patch clamp, hTRPV3 Phase 1 / Phase 2 currents; assay type: cell-based; conditions: Phase 1 current
Procedure, shortened: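 Whole-cell recordings on induced TRPV3 cells replated on coverslips, held at −40 mV with 400 ms ramps from −120 to +100 mV every 5 s; currents read at −80 and +80 mV. Ringer's external solution; current activated by heating to ≥28 °C or 20 μM 2-APB.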

[3] = molecular target: human hERG channels (Homo sapiens (Human), UniProt Q12809); test: hERG assay (patch clamp, CHO cells); assay type: cell-based; conditions: (PL); read-out: hERG (nM) (PL)
human hERG channels, sequence (Q12809 whole entry): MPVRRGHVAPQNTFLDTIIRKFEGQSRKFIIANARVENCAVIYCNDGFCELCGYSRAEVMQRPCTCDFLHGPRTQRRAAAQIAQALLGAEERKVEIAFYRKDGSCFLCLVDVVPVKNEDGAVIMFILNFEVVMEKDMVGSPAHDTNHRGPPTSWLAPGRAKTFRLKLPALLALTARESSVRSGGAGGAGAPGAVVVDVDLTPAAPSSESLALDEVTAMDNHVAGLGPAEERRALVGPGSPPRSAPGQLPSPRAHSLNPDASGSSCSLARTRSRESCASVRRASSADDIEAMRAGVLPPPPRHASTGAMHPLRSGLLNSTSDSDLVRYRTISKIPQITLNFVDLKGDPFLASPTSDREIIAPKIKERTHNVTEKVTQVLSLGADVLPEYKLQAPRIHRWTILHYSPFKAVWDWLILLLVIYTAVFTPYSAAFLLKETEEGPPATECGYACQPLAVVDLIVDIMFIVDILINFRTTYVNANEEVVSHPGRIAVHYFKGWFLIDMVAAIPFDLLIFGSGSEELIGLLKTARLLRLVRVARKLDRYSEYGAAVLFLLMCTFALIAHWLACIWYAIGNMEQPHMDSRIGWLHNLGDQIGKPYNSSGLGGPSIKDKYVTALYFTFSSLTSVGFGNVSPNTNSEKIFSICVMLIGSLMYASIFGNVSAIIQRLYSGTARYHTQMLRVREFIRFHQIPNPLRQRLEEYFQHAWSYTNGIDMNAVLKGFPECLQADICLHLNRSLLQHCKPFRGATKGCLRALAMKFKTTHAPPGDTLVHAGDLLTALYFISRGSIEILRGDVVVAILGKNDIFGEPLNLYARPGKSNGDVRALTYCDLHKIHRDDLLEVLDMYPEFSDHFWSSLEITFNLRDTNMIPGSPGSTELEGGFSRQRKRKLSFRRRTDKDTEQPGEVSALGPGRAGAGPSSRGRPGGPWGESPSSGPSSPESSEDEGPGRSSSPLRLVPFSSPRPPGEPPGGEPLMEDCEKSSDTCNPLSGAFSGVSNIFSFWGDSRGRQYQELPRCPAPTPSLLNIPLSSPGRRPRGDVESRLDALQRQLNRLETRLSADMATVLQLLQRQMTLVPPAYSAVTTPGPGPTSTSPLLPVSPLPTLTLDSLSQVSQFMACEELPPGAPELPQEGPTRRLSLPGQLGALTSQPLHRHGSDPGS
Description: hERG assay: Briefly, cells from a stable CHO cell line expressing human hERG channels were plated onto glass coverslips and used in patch clamp assays on the same day. After seal formation and break-in to whole-cell configuration, voltage steps were applied as follows: from the holding potential of −90 mV, a 2 second long step to +40 mV was applied, followed by a 1.5 second step to −50 mV. These steps were applied once every 5 seconds. The hERG current was measured at the peak of the outward tail current at −50 mV. The pipette solution was potassium aspartate based and the external solution was normal Ringer's.
All currents were recorded in whole-cell configuration using an Axopatch 200B controlled by pClamp 10 software (Molecular Devices). In each cell, when the current stabilized, the compound was perfused locally onto the cell. Two to three concentrations of the test compound were applied to each cell. At the end of compound testing, 10 μM verapamil was applied to completely block hERG currents and assess leak current.
Data were analyzed by computing the degree of current block after compound addition compared with the unblocked current amplitude. The unblocked current was predicted from the interpolation between the current amplitude prior to compound addition and after compound washout. The resulting percent block at each concentration was used to make a concentration-response plot and fitted to the Hill equation: percent block=minimum block+(maximum block-minimum block)/(1+10^(Hill slope*(log IC50−concentration))).

[4] = molecular target: T1, hTRPV3; test: hTRPV3 HAMA IC50 assay (Hamamatsu FDSS6000 calcium flux, TRex-293 cells); conditions: read-out: hTRPV3 HAMA IC50; 2-APB stimulated calcium flux
Description: IC50s were calculated using CBIS from ChemInnovation (San Diego).

[5] = human TRPV3, read-out: hTRPV3 (nM) Phase 1
[6] = inward, whole-cell patch clamp, read-out: hTRPV3 Patch P1 Inwd

T1 sequence (Q8NET8 whole entry): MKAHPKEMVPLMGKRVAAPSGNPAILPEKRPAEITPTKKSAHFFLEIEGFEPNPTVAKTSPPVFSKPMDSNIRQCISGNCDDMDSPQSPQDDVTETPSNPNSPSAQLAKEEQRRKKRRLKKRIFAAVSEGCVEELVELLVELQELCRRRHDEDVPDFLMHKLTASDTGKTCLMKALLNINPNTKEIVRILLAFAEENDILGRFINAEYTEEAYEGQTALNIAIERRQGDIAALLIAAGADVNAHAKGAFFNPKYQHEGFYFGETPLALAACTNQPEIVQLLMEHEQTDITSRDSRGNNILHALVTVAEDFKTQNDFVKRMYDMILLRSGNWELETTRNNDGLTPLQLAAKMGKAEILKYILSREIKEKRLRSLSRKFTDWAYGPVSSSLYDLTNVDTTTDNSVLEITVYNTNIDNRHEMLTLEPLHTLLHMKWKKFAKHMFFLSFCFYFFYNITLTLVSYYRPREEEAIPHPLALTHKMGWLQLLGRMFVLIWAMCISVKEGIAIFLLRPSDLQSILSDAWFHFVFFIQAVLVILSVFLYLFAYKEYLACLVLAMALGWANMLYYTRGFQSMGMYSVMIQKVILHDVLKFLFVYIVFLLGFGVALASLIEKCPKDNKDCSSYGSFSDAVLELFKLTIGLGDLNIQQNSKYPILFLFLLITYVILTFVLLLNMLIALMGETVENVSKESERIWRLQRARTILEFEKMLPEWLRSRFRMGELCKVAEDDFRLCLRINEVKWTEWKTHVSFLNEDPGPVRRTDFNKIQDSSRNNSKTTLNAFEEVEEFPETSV

| Structure (SMILES) | IC50 ([1]; read-out: FLIPR IC50) [µM] | also measured |
| --- | --- | --- |
| Cn1ccc(C(=O)N2CCC(c3ccc(-c4ccccc4C4CC4)cc3CO)C2)n1 (stereo not shown) [Compound 2-163] | > 10 | – |
| CC(C)c1ccccc1-c1ccc(C2CCN(Cc3ccc(F)cn3)C2)c(CO)c1 (stereo not shown) [Compound 2-95] | – | IC50 [2, 5]: 582 nM; IC50 [2, 6]: 100 to 1000 nM; IC50 [3]: < 1000 nM |
| COc1cncc(C(=O)N2CCC(c3ccc(-c4ccccc4C4CC4)cc3CO)C2)n1 (stereo not shown) [Compound 2-125] | 1.79 | IC50 [4]: 99.6 nM |
| Cc1nc(C(=O)N2CCC(c3ccc(-c4ccccc4C4CC4)cc3CO)C2)no1 (stereo not shown) [Compound 2-128] | 1.85 | IC50 [4]: 479 nM |
| Cc1nc(C(=O)N2CCC(c3ccc(-c4ccccc4C4CC4)cc3CO)C2)ccc1CO (stereo not shown) [Compound 2-144] | 3.27 | – |
| Cc1ccc(C(=O)N2CCC(c3ccc(-c4ccccc4C4CC4)cc3CO)C2)nc1O (stereo not shown) [Compound 2-140] | 5.57 | – |
| O=C(c1csc(CO)n1)N1CCC(c2ccc(-c3ccccc3C3CC3)cc2CO)C1 (stereo not shown) [Compound 2-160] | > 10 | – |
| CCc1oc(C(=O)N2CCC(c3ccc(-c4ccccc4C4CC4)cc3CO)C2)nc1C (stereo not shown) [Compound 2.145] | 4.43 | – |
| Cc1nc(C(=O)N2CCC(c3ccc(-c4ccccc4C4CC4)cc3CO)C2)cnc1O (stereo not shown) [Compound 2-136] | 5.17 | – |
| Cc1coc(C(=O)N2CCC(c3ccc(-c4ccccc4C4CC4)cc3CO)C2)n1 (stereo not shown) [Compound 2.146] | 5.95 | – |
| O=C(c1ccc(O)cn1)N1CCC(c2ccc(-c3ccccc3C3CC3)cc2CO)C1 (stereo not shown) [Compound 2-135] | 3.09 | – |
| O=C(c1ccc(F)cn1)N1CCC(c2ccc(-c3ccccc3)nc2CO)C1 (stereo not shown) [Compound 2-80] | – | IC50 [2, 5]: 163 nM; IC50 [2, 6]: 100 to 1000 nM; IC50 [3]: 5520 nM |
| O=C(c1cc2n(n1)CCC2)N1CCC(c2ccc(-c3ccccc3C3CC3)cc2CO)C1 (stereo not shown) [Compound 2-162] | 5.19 | – |
| O=C(c1cncc(O)n1)N1CCC(c2ccc(-c3ccccc3C3CC3)cc2CO)C1 (stereo not shown) [Compound 2-131] | – | IC50 ([1]; FLIPR IC50 (uM)): > 10 µM |
| Cn1ccnc1C(=O)N1CCC(c2ccc(-c3ccccc3C3CC3)cc2CO)C1 (stereo not shown) [Compound 2-164] | > 10 | – |
| COc1cnc(C(=O)N2CCC(c3ccc(-c4ccccc4C4CC4)cc3CO)C2)nc1 (stereo not shown) [Compound 2.158] | 6.12 | – |
| O=C(c1ccc(CO)cn1)N1CCC(c2ccc(-c3ccccc3C3CC3)cc2CO)C1 (stereo not shown) [Compound 2-134] | 9.5 | – |
| O=C(c1ncccc1O)N1CCC(c2ccc(-c3ccccc3C3CC3)cc2CO)C1 (stereo not shown) [Compound 2-139] | 7.68 | – |
| O=C(c1ccc(CO)nn1)N1CCC(c2ccc(-c3ccccc3C3CC3)cc2CO)C1 (stereo not shown) [Compound 2-138] | > 10 | – |
